# In patent US10501493B2, “Broad spectrum antibiotics” (priority 2011, dated 2019):
# Where two headings read alike, the source gives them in different places.
# Key:
# [1] = tested on: S. aureus NCTC-8325 SpsB(P295); experiment: In vitro antimicrobial activity, MIC by broth micro-dilution; format: cell-based; details: for MIC: Staphylococcus aureus, NCTC8325, read-out: MIC class, S. aureus NCTC-8325 SpsB(P295)
# Description: (§1) In vitro antimicrobial activity of each compound was determined by measuring minimal inhibitor concentrations (MICs) using the broth micro-dilution technique as approved by the Clinical and Laboratory Standards Institute (CLSI). The microbiological panel examined contains a number of bacterial species including E. coli MG1655, P. aeruginosa, S. aureus, and S. epidermidis. In addition, the panel includes previously described pseudo-isogenic strains of these four species (P. A. Smith et al. Chem Biol 2010, 1223-1231), in which a specific proline residue in SPase (called LepB in Gram-negative organisms an SpsB in Gram-positive organisms) has been mutated to a different amino acid. The resulting strains have increased susceptibility to the arylomycin class of antibiotics. Analysis of the strains lacking this proline residue will increases the dynamic range of the assay, and comparison of the sensitivities of the isogenic pairs provides ongoing confirmation that the activity gained through derivatization is specific to the inhibition of SPase. Briefly, bacterial streaks were grown on Mueller Hinton Agar II (Difco™) with or without 5% lysed horse blood for a period of 24 hours at either 35° C. or 28° C. Bacterial colonies were suspended in cation adjusted Mueller Hinton broth and diluted to a final concentration of 1*10^7 colony forming units/ml. Two-fold serial dilutions of each compound were arrayed into 96-well plates (100 μl final volume per well) and 5 ul of the bacterial suspension will be added. […] MICs were periodically checked plating serial dilutions of MIC wells and quantitatively determining viable colonies.
# [2] = tested on: S. epidermidis RP62A; experiment: as above; format: cell-based; details: for MIC: Staphylococcus epidermidis, RP62A, read-out: MIC class, S. epidermidis RP62A
# Description: as §1
# [3] = tested on: S. pneumoniae D39; experiment: as above; format: cell-based; details: for MIC: Streptococcus pneumoniae, D39, read-out: MIC class, S. pneumoniae D39
# Description: as §1
# [4] = tested on: E. coli ATCC 25922; experiment: as above; format: cell-based
# Description: as §1
# [5] = tested on: S. aurues NCTC-8325; experiment: as above; format: cell-based, S. aureus; details: for MIC: Staphylococcus aureus, NCTC8325, read-out: MIC class, S. aurues NCTC-8325
# Description: as §1
# [6] = tested on: E. col ATCC 25922 LepB(P84L); experiment: as above; format: cell-based, E. coli; details: for MIC: Escherichia coli, ATCC25922, read-out: MIC class, E. col ATCC 25922 LepB(P84L)
# Description: as §1
# [7] = biological target: T1, S. aureus SPase (Staphylococcus aureus, UniProt P0A070); experiment: Enzymatic fluorogenic substrate cleavage assay for IC50; format: biochemical
# T1 construct: Full length His-tagged S. aureus SPase protein was expressed similarly; His-tag; made in house; host or cells: E. coli BL21(DE3)
# Description: (§2) Full length His-tagged E. coli SPase proteins were expressed in E. coli BL21(DE3) containing the plasmid pET23-lepB, P. A. Smith et al. Chem Biol 2010, 1223-1231. Briefly, saturated overnight cultures grown in 20 ml of Luria-Bertani medium supplemented with ampicillin were subcultures into 1.5 L of Luria-Bertani, and shaken at 37° C. until an optical density at 600 nm of 0.4-0.5 was achieved. Protein expression was induced with Isopropyl β-D-1-thiogalactopyranoside (ITPG) at a final concentration of […], and purified using nickel affinity chromatography. Full length His-tagged S. aureus SPase protein was expressed similarly from E. coli BL21(DE3) containing the plasmid pCDF1-SaSpsB or pCDF1-SaSpsB(P29S) and purified similarly to the E. coli protein with the following exceptions. SPase protein was solubilized using 300 mM NaCl, 20 mM Tris pH 8.06, 5 mM Imidazole, 10% glycerol, 1% Triton X-100, prior to purification in Ni-NTA Superflow resin and resin bound protein was washed in a similar buffer containing 1% Elugent in place of Triton X-100 prior to protein eluted in wash buffer supplemented with 300 mM imidazole. Protein purify was judged to exceed 95% by visual inspection of SDS-PAGE followed by Comassie staining. All protein concentrations were determined by BCA assay.
# (§3) In addition to the equilibrium binding assays, compound activity is also characterized by measuring inhibition of E. coli and S. aureus substrate cleavage reactions using fluorogenic peptides developed at RQx Pharmaceuticals. Briefly, two fluorogenic peptide substrates (decanoyl-LSSPA Y^NO2 A ? ADK^abzPD (SEQ ID NO: 1) and decanyol-LTPTAY^NO2 A ? ASKK^abzDD (SEQ ID NO: 2)) have been synthesized, where abz is the fluorescence donor 2-aminobenzamide, YNO2 is the fluorescence acceptor 3-nitrotyrosine, and the cleavage site is indicated with an arrow. These substrates are processed with a second order rate constant (Kcat/KM) of 10^5 M^−1s^−1 for E. coli and S. aureus SPase enzymes, and cleavage results in a greater than 10-fold increase in fluorescence signal (excitation at 314 nm, emission at 416 nm) as measured using a SpectraMax M2 fluorescence microplate reader. Two-folder serial dilutions of compound are prepared in cleavage reaction buffer consisting of: 50 mM Tris-HCl pH 8.0, 100 mM NaCl, 10% glycerol, 1 mM EDTA, detergent (1% NP-40 or 0.1% Elugent™ for E. coli LepB or S. aureus SpsB respectively) and either 2.5 nM of E. coli SPase enzyme or 10 nM of S. aureus SPase enzyme. 40 μl aliquots of the compound dilution series in the protein/buffer solution is transferred to black 384-well polypropylene plates, and 10 μl of fluorogenic peptide at a concentration of 100 μM is added to initiate the reaction. The increase in fluorescence, corresponding to substrate cleavage, is monitored continuously at room temperature for 30 minutes and initial reaction rates are calculated based in the linear increase in fluorescence from the initial 30 minutes of the reaction. Reaction rates are plotted as a function of compound concentration, and IC50 values are determined nonlinear regression analysis (SoftMax® Pro v5.4) of the sigmoidal dose-response curve.
# [8] = biological target: T2, E. coli SPase (Escherichia coli, UniProt P00803); experiment: as above; format: biochemical
# T2 construct: Full length His-tagged E. coli SPase proteins were expressed in E. coli BL21(DE3); His-tag; made in house; host or cells: E. coli BL21(DE3)
# Description: as §2, §3
# [9] = Escherichia coli, ATCC25922; read-out: MIC class, E. coli ATCC 25922
# [10] = fluorogenic peptide cleavage, read-out: IC50 class S. aureus SPase
# [11] = fluorogenic peptide cleavage, read-out: IC50 class E. coli SPase
Structure (SMILES),MIC [1],MIC [2],MIC [3],"MIC ([4]; Escherichia coli, ATCC25922, read-out: MIC class, E. coli ATCC 25922)",MIC [5],MIC [6],IC50 [7],IC50 [8],"MIC [4, 9]","MIC class, S. aureus NCTC-8325 SpsB(P295) [1]","MIC class, S. epidermidis RP62A [2]","MIC class, S. pneumoniae D39 [3]","MIC class, E. coli ATCC 25922 ([4]; E. coli ATCC 25922)","MIC class, S. aurues NCTC-8325 [5]","MIC class, E. col ATCC 25922 LepB(P84L) [6]","IC50 [7, 10]","IC50 [8, 11]"
CCCCCCCCCCCCCCCC(=O)N(C)[C@H](CO)C(=O)N[C@H](C)C(=O)NCC(=O)N(C)[C@@H]1C(=O)N[C@@H](C)C(=O)N[C@H](C(=O)O)Cc2ccc(OC)c(c2)-c2cc1ccc2OC [Compound 77],16 to 64 µg/mL,> 64 µg/mL,16 to 64 µg/mL,> 64 µg/mL,> 64 µg/mL,< 8 µg/mL,1 to 10 µM,> 10 µM,–,–,–,–,–,–,–,–,–
CCCCCCCCCCCCCCCC(=O)N(C)[C@H](CO)C(=O)N[C@H](C)C(=O)NCC(=O)N(C)[C@@H]1C(=O)N[C@@H](C)C(=O)N[C@H](C(=O)NCC(O)C(=O)O)Cc2ccc(O)c(c2)-c2cc1ccc2O (stereo partly shown) [Compound 78],> 64 µg/mL,> 64 µg/mL,16 to 64 µg/mL,–,> 64 µg/mL,> 64 µg/mL,> 10 µM,< 1 µM,> 64 µg/mL,–,–,–,–,–,–,–,–
CCCCCCCCCCCCCCCC(=O)N(C)C(CO)C(=O)N[C@H](C)C(=O)NCC(=O)N(C)[C@@H]1C(=O)N[C@@H](C)C(=O)NC(C(=O)NCC(O)C(N)=O)Cc2ccc(O)c(c2)-c2cc1ccc2O (stereo partly shown) [Compound 82],> 64 µg/mL,> 64 µg/mL,16 to 64 µg/mL,–,> 64 µg/mL,> 64 µg/mL,> 10 µM,1 to 10 µM,> 64 µg/mL,–,–,–,–,–,–,–,–
CCCCCCCCCCCCCCCC(=O)N(C)[C@H](CO)C(=O)N[C@H](C)C(=O)NCC(=O)N(C)[C@@H]1C(=O)N[C@@H](C)C(=O)N[C@H](C(=O)O)CCCc2ccc(O)c(c2)-c2cc1ccc2O [Compound 83],–,–,–,–,–,–,–,–,–,b (MIC 16-64 μg/ml),c (MIC ≤8 μg/ml),c (MIC ≤8 μg/ml),a (MIC >64 μg/ml),a (MIC >64 μg/ml),c (MIC ≤8 μg/ml),< 1 µM,1 to 10 µM
CCCCCCCCCCCCCCCC(=O)N(C)[C@H](CO)C(=O)N[C@H](C)C(=O)N(C)CC(=O)N(C)[C@@H]1C(=O)N[C@@H](C)C(=O)N[C@H](C(=O)O)Cc2ccc(O)c(c2)-c2cc1ccc2O [Compound 84],> 64 µg/mL,16 to 64 µg/mL,< 8 µg/mL,–,> 64 µg/mL,> 64 µg/mL,< 1 µM,< 1 µM,> 64 µg/mL,–,–,–,–,–,–,–,–
CCCCCCCCCCC(=O)N(C)[C@H](CO)C(=O)N[C@H](C)C(=O)NCC(=O)N(C)[C@@H]1C(=O)N[C@@H](C)C(=O)N[C@H](C(=O)O)Cc2ccc(O)c(c2)-c2cc1ccc2O [Compound 85],> 64 µg/mL,< 8 µg/mL,> 64 µg/mL,–,> 64 µg/mL,16 to 64 µg/mL,1 to 10 µM,< 1 µM,> 64 µg/mL,–,–,–,–,–,–,–,–
CCCCCCCCCCCCC(=O)N(C)[C@H](CO)C(=O)N[C@H](C)C(=O)NCC(=O)N(C)[C@@H]1C(=O)N[C@@H](C)C(=O)N[C@H](C(=O)O)Cc2ccc(O)c(c2)-c2cc1ccc2O [Compound 86],< 8 µg/mL,16 to 64 µg/mL,16 to 64 µg/mL,–,> 64 µg/mL,< 8 µg/mL,< 1 µM,< 1 µM,> 64 µg/mL,–,–,–,–,–,–,–,–
CCCCCCCCCCCCCCCC(=O)N[C@H](CO)C(=O)N[C@H](C)C(=O)N[C@@H](C)C(=O)N(C)[C@@H]1C(=O)N[C@@H](C)C(=O)N[C@H](C(=O)O)Cc2ccc(O)c(c2)-c2cc1ccc2O [Compound 87],> 64 µg/mL,< 8 µg/mL,> 64 µg/mL,–,> 64 µg/mL,> 64 µg/mL,< 1 µM,< 1 µM,> 64 µg/mL,–,–,–,–,–,–,–,–
CCCCCCCCCCCCCCCC(=O)N(C)[C@H](CO)C(=O)N[C@H](C)C(=O)NCC(=O)N(C)[C@@H]1C(=O)N[C@@H](C)C(=O)N[C@H](C(=O)NCC(O)C(=O)NC)Cc2ccc(O)c(c2)-c2cc1ccc2O (stereo partly shown) [Compound 90],–,–,–,–,–,–,–,–,–,a (MIC >64 μg/ml),c (MIC ≤8 μg/ml),c (MIC ≤8 μg/ml),a (MIC >64 μg/ml),a (MIC >64 μg/ml),a (MIC >64 μg/ml),1 to 10 µM,1 to 10 µM
CCCCCCCCCCCCCCCC(=O)N(C)[C@H](CO)C(=O)N[C@H](C)C(=O)N[C@@H](C)C(=O)N(C)[C@@H]1C(=O)N[C@@H](C)C(=O)N[C@H](C(=O)O)Cc2ccc(O)c(c2)-c2cc1ccc2O [Compound 91],> 64 µg/mL,< 8 µg/mL,< 8 µg/mL,–,> 64 µg/mL,> 64 µg/mL,< 1 µM,< 1 µM,> 64 µg/mL,–,–,–,–,–,–,–,–
CCCCCCCCCCCCCCCC(=O)N(C)[C@H](CO)C(=O)N[C@H](C)C(=O)NCC(=O)N(C)[C@@H]1C(=O)N[C@@H](C)C(=O)N[C@H](C(=O)NCC=O)CCCc2ccc(O)c(c2)-c2cc1ccc2O [Compound 94],–,–,–,–,–,–,–,–,–,a (MIC >64 μg/ml),c (MIC ≤8 μg/ml),b (MIC 16-64 μg/ml),a (MIC >64 μg/ml),a (MIC >64 μg/ml),a (MIC >64 μg/ml),< 1 µM,< 1 µM
